The values that follow come from patent US7342011B2, “Rifamycin analogs and uses thereof” (priority 2003, dated 2008).

What all share (type): cell-based
For one test, the system named is E. faecalis. The experiment in a line: MIC assay, E. faecalis.
The subject of a further test is S. pneumo. The experiment in a line: MIC assay, S. pneumo.
Another test deals with S. aureus. The experiment in a line: MIC assay, S. aureus.
The next test relates to H. flu. The experiment in a line: MIC assay, H. flu.
The next test deals with E. coli. The experiment in a line: MIC assay, E. coli.

Values after ≈ are worked out from the molar mass of the structure shown. Bounds are passed on as bounds.

Turning to `CO[C@H]1/C=C/O[C@@]2(C)Oc3c(C)c(O)c4c(=O)c(c5oc6cc(N7C[C@H]8CCCN(C(C)=O)[C@H]8C7)cc(O)c6nc-5c4c3C2=O)NC(=O)/C(C)=C\C=C\[C@H](C)[C@H](O)[C@@H](C)[C@@H](O)[C@@H](C)[C@H](O)[C@@H]1C` [Compound 46, 25-O-deacetyl-3′-hydroxy-5′-[1-acetyl-(4aR,7aR)-octahydro-6H-pyrrolo[3,4-b]pyridin-6-yl]benzoxazinorifamycin], the “MIC (μg/mL) E. faecalis” value against E. faecalis was 2 µg/mL (≈ 2.16 µM). Besides, the “MIC (μg/mL) S. pneumo.” value against S. pneumo. was 0.00006 µg/mL (≈ 6.49e-05 µM). Further, the “MIC (μg/mL) S. aureus” value in the test with S. aureus worked out at 0.004 µg/mL (≈ 0.00432 µM). The “MIC (μg/mL) H. flu” value in the test on H. flu came to 0.5 µg/mL (≈ 0.541 µM). Also, the “MIC (μg/mL) E. coli” value in the test on E. coli was above 8 µg/mL.
On to `CO[C@H]1/C=C/O[C@@]2(C)Oc3c(C)c(O)c4c(=O)c(c5sc6cc(N7C[C@@H](C)N[C@@H](C)C7)ccc6nc-5c4c3C2=O)NC(=O)/C(C)=C\C=C\[C@H](C)[C@H](O)[C@@H](C)[C@@H](O)[C@@H](C)[C@H](OC(C)=O)[C@@H]1C` [Compound 64, 5′-[(3R,5S)-3,5-dimethyl-1-piperazinyl]benzthiazinorifamycin], for which the “MIC (μg/mL) E. faecalis” value against E. faecalis came to 0.12 µg/mL (≈ 0.131 µM). Besides, in the test with S. pneumo., the “MIC (μg/mL) S. pneumo.” value was found to be 0.00012 µg/mL (≈ 0.000131 µM). In the test with S. aureus, the “MIC (μg/mL) S. aureus” value worked out at 0.004 µg/mL (≈ 0.00438 µM). Moreover, in the test with H. flu, the “MIC (μg/mL) H. flu” value is 0.25 µg/mL (≈ 0.274 µM). Moreover, in the test on E. coli, the “MIC (μg/mL) E. coli” value stood at 4 µg/mL (≈ 4.38 µM).
Consider `COC1C=COC2(C)Oc3c(C)c(O)c4c(=O)c(c5oc6cc(N7CCC(NS(C)(=O)=O)CC7)cc(O)c6nc-5c4c3C2=O)NC(=O)C(C)=CC=CC(C)C(O)C(C)C(O)C(C)C(O)C1C` (stereo not drawn) [Compound 27], for which the “MIC (μg/mL) E. faecalis” value against E. faecalis turned out to be 1 µg/mL (≈ 1.07 µM). The “MIC (μg/mL) S. pneumo.” value in the test on S. pneumo. came to 0.001 µg/mL (≈ 0.00107 µM). In the test on S. aureus, the “MIC (μg/mL) S. aureus” value came out at 0.015 µg/mL (≈ 0.016 µM). Further, the “MIC (μg/mL) H. flu” value in the test with H. flu came to 0.12 µg/mL (≈ 0.128 µM). The “MIC (μg/mL) E. coli” value against E. coli is above 8 µg/mL.
Taken in the same sequence, the figures for `CCOC(=O)NC1CCN(c2cc(O)c3nc4c5c6c7c(C)c(O)c5c(=O)c(c-4oc3c2)NC(=O)/C(C)=C\C=C\[C@H](C)[C@H](O)[C@@H](C)[C@@H](O)[C@@H](C)[C@H](OC(C)=O)[C@H](C)[C@@H](OC)/C=C/O[C@@](C)(O7)C6=O)CC1` [Compound 1] were 2 µg/mL (≈ 2.06 µM), 0.00025 µg/mL (≈ 0.000257 µM), 0.008 µg/mL (≈ 0.00824 µM), 2 µg/mL (≈ 2.06 µM) and above 8 µg/mL.
In the case of `CO[C@H]1/C=C/O[C@@]2(C)Oc3c(C)c(O)c4c(=O)c(c5oc6cc(N7C[C@@H]8CCCN(C)[C@@H]8C7)cc(O)c6nc-5c4c3C2=O)NC(=O)/C(C)=C\C=C\[C@H](C)[C@H](O)[C@@H](C)[C@@H](O)[C@@H](C)[C@H](OC(C)=O)[C@@H]1C` [Compound 58, 3′-hydroxy-5′-[1-methyl-(4aS,7aS)-octahydro-6H-pyrrolo[3,4-b]pyridin-6-yl]benzoxazinorifamycin], the “MIC (μg/mL) E. faecalis” value in the test with E. faecalis is 1 µg/mL (≈ 1.06 µM). For the same compound, the “MIC (μg/mL) S. pneumo.” value against S. pneumo. is 0.004 µg/mL (≈ 0.00426 µM). Besides, the “MIC (μg/mL) S. aureus” value in the test with S. aureus was determined as 0.03 µg/mL (≈ 0.0319 µM). Besides, the “MIC (μg/mL) H. flu” value against H. flu was found to be 0.25 µg/mL (≈ 0.266 µM). Further, the “MIC (μg/mL) E. coli” value in the test on E. coli is above 8 µg/mL.
Regarding `CO[C@H]1/C=C/O[C@@]2(C)Oc3c(C)c(O)c4c(=O)c(c5oc6cc(N7C[C@H]8CCCN(C(C)=O)[C@H]8C7)cc(O)c6nc-5c4c3C2=O)NC(=O)/C(C)=C\C=C\[C@H](C)[C@H](O)[C@@H](C)[C@@H](O)[C@@H](C)[C@H](OC(C)=O)[C@@H]1C` [Compound 47, 3′-hydroxy-5′-[-acetyl-(4aR,7aR)-octahydro-6H-pyrrolo[3,4-b]pyridin-6-yl]benzoxazinorifamycin], the “MIC (μg/mL) E. faecalis” value with E. faecalis was found to be 1 µg/mL (≈ 1.03 µM). The “MIC (μg/mL) S. pneumo.” value against S. pneumo. amounted to 0.002 µg/mL (≈ 0.00207 µM). Further, in the test with S. aureus, the “MIC (μg/mL) S. aureus” value was 0.008 µg/mL (≈ 0.00827 µM). The “MIC (μg/mL) H. flu” value with H. flu was 0.25 µg/mL (≈ 0.259 µM). Besides, the “MIC (μg/mL) E. coli” value with E. coli is above 8 µg/mL.
Turning to `CO[C@H]1/C=C/O[C@@]2(C)Oc3c(C)c(O)c4c(=O)c(c5oc6cc(N7CCC(NC(=O)N8CCC(NC(=O)SC)CC8)CC7)cc(O)c6nc-5c4c3C2=O)NC(=O)/C(C)=C\C=C\[C@H](C)[C@H](O)[C@@H](C)[C@@H](O)[C@@H](C)[C@H](OC(C)=O)[C@@H]1C` [Compound 49, 3′-hydroxy-5′-[4-(4-(S-methylthiocarbamyl)-1-piperidinylcarbonyl)amino-1-piperidinyl]benzoxazinorifamycin], the “MIC (μg/mL) E. faecalis” value in the test on E. faecalis is 8 µg/mL (≈ 7.28 µM). Also, the “MIC (μg/mL) S. pneumo.” value in the test with S. pneumo. was determined as 0.0005 µg/mL (≈ 0.000455 µM). The “MIC (μg/mL) S. aureus” value in the test with S. aureus worked out at 0.06 µg/mL (≈ 0.0546 µM). Also, the “MIC (μg/mL) H. flu” value in the test with H. flu was 2 µg/mL (≈ 1.82 µM). Further, the “MIC (μg/mL) E. coli” value against E. coli was above 8 µg/mL.
For `CCCNC(=O)NC1CCN(c2cc(O)c3nc4c5c6c7c(C)c(O)c5c(=O)c(c-4oc3c2)NC(=O)C(C)=CC=CC(C)C(O)C(C)C(O)C(C)C(O)C(C)C(OC)C=COC(C)(O7)C6=O)CC1` (stereo not drawn) [Compound 26, 25-O-deacetyl-3′-hydroxy-5′-[4-propyluryl-1-piperidinyl]benzoxazinorifamycin], the “MIC (μg/mL) E. faecalis” value in the test with E. faecalis amounted to 2 µg/mL (≈ 2.12 µM). Besides, in the test with S. pneumo., the “MIC (μg/mL) S. pneumo.” value was 0.00012 µg/mL (≈ 0.000127 µM). In the test on S. aureus, the “MIC (μg/mL) S. aureus” value was found to be 0.008 µg/mL (≈ 0.00849 µM). Moreover, the “MIC (μg/mL) H. flu” value against H. flu was 1 µg/mL (≈ 1.06 µM). In the test on E. coli, the “MIC (μg/mL) E. coli” value is above 8 µg/mL.
`CCCNC(=O)NC1CCN(c2cc(O)c3nc4c5c6c7c(C)c(O)c5c(=O)c(c-4oc3c2)NC(=O)/C(C)=C\C=C\[C@H](C)[C@H](O)[C@@H](C)[C@@H](O)[C@@H](C)[C@H](OC(C)=O)[C@H](C)[C@@H](OC)/C=C/O[C@@](C)(O7)C6=O)CC1` [Compound 28, 3′-hydroxy-5′-[4-propyluryl-1-piperidinyl]benzoxazinorifamycin]: in the test with E. coli, the “MIC (μg/mL) E. coli” value was above 8 µg/mL.
As to `CO[C@H]1/C=C/O[C@@]2(C)Oc3c(C)c(O)c4c(=O)c(c5oc6cc(N7CCC(N(C)C)CC7)cc(O)c6nc-5c4c3C2=O)NC(=O)/C(C)=C\C=C\[C@H](C)[C@H](O)[C@@H](C)[C@@H](O)[C@@H](C)[C@H](OC(C)=O)[C@@H]1C` [Compound 17, 3′-hydroxy-5′-(4-N,N-dimethylamino-1-piperidinyl)benzoxazinorifamycin], the “MIC (μg/mL) E. coli” value against E. coli stood at 8 µg/mL (≈ 8.63 µM).
`COC1C=COC2(C)Oc3c(C)c(O)c4c(=O)c(c5oc6cc(N7CC8C(C7)C8N(C)C)cc(O)c6nc-5c4c3C2=O)NC(=O)C(C)=CC=CC(C)C(O)C(C)C(O)C(C)C(OC(C)=O)C1C` [Compound 53, 3′-hydroxy-5′-[6-N,N-dimethylamino-(1R,5S)-3-azabicyclo[3.1.0]hex-3-yl]benzoxazinorifamycin]: in the test on E. coli, the “MIC (μg/mL) E. coli” value was above 8 µg/mL.
For `CO[C@H]1/C=C/O[C@@]2(C)Oc3c(C)c(O)c4c(=O)c(c5oc6cc(N7C[C@H]8CCCN[C@H]8C7)cc(O)c6nc-5c4c3C2=O)NC(=O)/C(C)=C\C=C\[C@H](C)[C@H](O)[C@@H](C)[C@@H](O)[C@@H](C)[C@H](O)[C@@H]1C` [Compound 15, 25-O-deacetyl-3′-hydroxy-5′-[(4aR,7aR)-octahydro-6H-pyrrolo[3,4-b]pyridin-6-yl]benzoxazinorifamycin], the “MIC (μg/mL) E. coli” value with E. coli is above 8 µg/mL.
Still for that read-out and setting: the figure for `COC1C=COC2(C)Oc3c(C)c(O)c4c(=O)c(c5oc6cc(N7CC8C(C7)C8N(C)C)cc(O)c6nc-5c4c3C2=O)NC(=O)C(C)=CC=CC(C)C(O)C(C)C(O)C(C)C(O)C1C` [Compound 54, 3′-hydroxy-5′-[6-N,N-dimethylamino-(1R,5S)-3-azabicyclo[3.1.0]hex-3-yl]benzoxazinorifamycin] is above 8 µg/mL; for `CO[C@H]1/C=C/O[C@@]2(C)Oc3c(C)c(O)c4c(=O)c(c5oc6cc(N7CCC(N8CCOCC8)CC7)cc(O)c6nc-5c4c3C2=O)NC(=O)/C(C)=C\C=C\[C@H](C)[C@H](O)[C@@H](C)[C@@H](O)[C@@H](C)[C@H](OC(C)=O)[C@@H]1C` [Compound 9, 3′-hydroxy-5′-(4-morpholinyl-1-piperidinyl)benzoxazinorifamycin] it is 8 µg/mL (≈ 8.26 µM); for `CO[C@H]1/C=C/O[C@@]2(C)Oc3c(C)c(O)c4c(=O)c(c5oc6cc(N7CCC(NS(=O)(=O)C(F)(F)F)CC7)cc(O)c6nc-5c4c3C2=O)NC(=O)/C(C)=C\C=C\[C@H](C)[C@H](O)[C@@H](C)[C@@H](O)[C@@H](C)[C@H](OC(C)=O)[C@@H]1C` [Compound 23] it is above 8 µg/mL.
As for `COC(=O)NC1CCN(c2cc(O)c3nc4c5c6c7c(C)c(O)c5c(=O)c(c-4oc3c2)NC(=O)/C(C)=C\C=C\[C@H](C)[C@H](O)[C@@H](C)[C@@H](O)[C@@H](C)[C@H](O)[C@H](C)[C@@H](OC)/C=C/O[C@@](C)(O7)C6=O)CC1` [Compound 30, 25-O-deacetyl-3′-hydroxy-5′-[4-methylcarbamyl-1-piperidinyl]benzoxazinorifamycin], the “MIC (μg/mL) E. coli” value against E. coli was above 8 µg/mL.
For `CO[C@H]1/C=C/O[C@@]2(C)Oc3c(C)c(O)c4c(=O)c(c5oc6cc(N7C[C@@H]8CCCN[C@@H]8C7)cc(O)c6nc-5c4c3C2=O)NC(=O)/C(C)=C\C=C\[C@H](C)[C@H](O)[C@@H](C)[C@@H](O)[C@@H](C)[C@H](OC(C)=O)[C@@H]1C` [Compound 5, 3′-hydroxy-5′-[(4aS,7aS)-octahydro-6H-pyrrolo[3,4-b]pyridin-6-yl]benzoxazinorifamycin], the “MIC (μg/mL) E. coli” value with E. coli came out at 8 µg/mL (≈ 8.65 µM).
Consider `CCOC(=O)NCC1CCN(c2cc(O)c3nc4c5c6c7c(C)c(O)c5c(=O)c(c-4oc3c2)NC(=O)C(C)=CC=CC(C)C(O)C(C)C(O)C(C)C(O)C(C)C(OC)C=COC(C)(O7)C6=O)CC1` (stereo not drawn) [Compound 60, 25-O-deacetyl-3′-hydroxy-5′-[4-ethylcarbamylmethyl-1-piperidinyl]benzoxazinorifamycin], for which the “MIC (μg/mL) E. coli” value against E. coli was above 8 µg/mL.
For the compound `CO[C@H]1/C=C/O[C@@]2(C)Oc3c(C)c(O)c4c(=O)c(c5oc6cc(N7CCC(NS(C)(=O)=O)CC7)cc(O)c6nc-5c4c3C2=O)NC(=O)/C(C)=C\C=C\[C@H](C)[C@H](O)[C@@H](C)[C@@H](O)[C@@H](C)[C@H](OC(C)=O)[C@@H]1C` [Compound 25], the “MIC (μg/mL) E. coli” value in the test with E. coli was above 8 µg/mL.
